Assay [1] concerns the target T1, BRG1 (Homo sapiens, UniProt P51532).
T1 construct: either BRM primary antibody (Cell signaling Cat #11966) or BRG primary antibody (Abcam, ab 110641); endogenous in cells; host or cells: SW1573
In words: Immunofluorescence assay for BRG1 degradation in SW1573 cells. The assay is classed as cell-based. To be noted: 20 hours incubation; for DC50: immunofluorescence mean nuclear signal, read-out: BRG1 IF Degradation IC50; for Dmax: SW1573, 20 h, normalized to a known degrader control, read-out: BRG1 IF Degradation Sinf (%). The method, boiled down: (§1)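 SW1573 cells were treated with compound for 20 h, fixed, permeabilized and immunostained for BRM or BRG1 with a Hoechst nuclear counterstain. Mean nuclear signal intensity per cell was quantified by high-content imaging, normalized to a known degrader control, and dose-response curves were fit with a floating maximum to derive Dmax.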

Assay [2] deals with BRM (Homo sapiens, UniProt P51531). In words: Immunofluorescence assay for BRM degradation in SW1573 cells. To be noted: 20 hours incubation; for DC50: immunofluorescence mean nuclear signal, read-out: BRM IF Degradation IC50; for BRM IF Degradation Sinf (%): normalized to a known degrader control. More on the design: treated overnight at 4° C. with either BRM primary antibody (Cell signaling Cat #11966) or BRG primary antibody; endogenous in cells; host or cells: SW1573. The assay is classed as cell-based. Summed up: as §1
Sequence of BRM (P51531 whole entry): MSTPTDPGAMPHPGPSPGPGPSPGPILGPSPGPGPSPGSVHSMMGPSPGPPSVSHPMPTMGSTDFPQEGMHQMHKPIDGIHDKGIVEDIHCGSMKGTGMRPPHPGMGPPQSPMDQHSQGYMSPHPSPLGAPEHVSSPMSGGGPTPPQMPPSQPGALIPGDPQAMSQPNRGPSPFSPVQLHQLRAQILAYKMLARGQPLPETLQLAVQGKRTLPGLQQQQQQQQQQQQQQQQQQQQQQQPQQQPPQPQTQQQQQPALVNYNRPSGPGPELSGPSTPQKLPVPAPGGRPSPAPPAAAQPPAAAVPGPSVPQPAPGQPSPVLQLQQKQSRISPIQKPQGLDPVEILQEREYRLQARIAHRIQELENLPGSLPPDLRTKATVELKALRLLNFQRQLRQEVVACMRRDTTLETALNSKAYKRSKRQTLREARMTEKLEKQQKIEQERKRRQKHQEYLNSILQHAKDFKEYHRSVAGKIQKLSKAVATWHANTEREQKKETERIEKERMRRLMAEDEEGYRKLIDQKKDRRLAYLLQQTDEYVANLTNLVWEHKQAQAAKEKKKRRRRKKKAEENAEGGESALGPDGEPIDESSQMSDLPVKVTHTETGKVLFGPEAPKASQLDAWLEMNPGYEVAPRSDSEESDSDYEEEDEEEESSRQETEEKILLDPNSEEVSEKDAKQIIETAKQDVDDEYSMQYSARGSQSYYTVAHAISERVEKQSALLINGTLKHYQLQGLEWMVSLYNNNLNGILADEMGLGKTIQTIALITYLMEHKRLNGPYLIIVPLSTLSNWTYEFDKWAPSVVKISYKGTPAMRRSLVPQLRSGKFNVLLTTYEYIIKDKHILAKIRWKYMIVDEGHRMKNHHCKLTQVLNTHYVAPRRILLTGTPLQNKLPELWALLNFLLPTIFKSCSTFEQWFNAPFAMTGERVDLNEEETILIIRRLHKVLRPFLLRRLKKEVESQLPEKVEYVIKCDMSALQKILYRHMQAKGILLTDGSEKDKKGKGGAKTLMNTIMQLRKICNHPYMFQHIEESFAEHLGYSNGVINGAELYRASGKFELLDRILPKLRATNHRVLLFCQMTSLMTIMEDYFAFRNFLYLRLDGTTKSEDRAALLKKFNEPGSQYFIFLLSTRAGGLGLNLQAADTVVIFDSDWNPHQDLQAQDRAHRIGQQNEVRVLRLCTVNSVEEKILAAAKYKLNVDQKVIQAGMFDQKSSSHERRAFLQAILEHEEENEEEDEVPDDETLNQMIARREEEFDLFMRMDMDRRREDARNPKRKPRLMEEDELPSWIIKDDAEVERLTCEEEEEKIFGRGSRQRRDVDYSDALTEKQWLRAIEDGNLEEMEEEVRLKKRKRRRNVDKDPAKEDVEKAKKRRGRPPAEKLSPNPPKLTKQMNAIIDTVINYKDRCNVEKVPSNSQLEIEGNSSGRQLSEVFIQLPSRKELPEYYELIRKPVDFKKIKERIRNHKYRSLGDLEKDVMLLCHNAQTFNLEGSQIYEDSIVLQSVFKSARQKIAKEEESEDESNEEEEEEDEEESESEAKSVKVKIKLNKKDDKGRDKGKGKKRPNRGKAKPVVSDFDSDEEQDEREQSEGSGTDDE

The record followed here is patent US11993599B2, “Therapeutic compounds” (Genentech, Inc., priority 2021, dated 2024).

T1 sequence (P51532 whole entry): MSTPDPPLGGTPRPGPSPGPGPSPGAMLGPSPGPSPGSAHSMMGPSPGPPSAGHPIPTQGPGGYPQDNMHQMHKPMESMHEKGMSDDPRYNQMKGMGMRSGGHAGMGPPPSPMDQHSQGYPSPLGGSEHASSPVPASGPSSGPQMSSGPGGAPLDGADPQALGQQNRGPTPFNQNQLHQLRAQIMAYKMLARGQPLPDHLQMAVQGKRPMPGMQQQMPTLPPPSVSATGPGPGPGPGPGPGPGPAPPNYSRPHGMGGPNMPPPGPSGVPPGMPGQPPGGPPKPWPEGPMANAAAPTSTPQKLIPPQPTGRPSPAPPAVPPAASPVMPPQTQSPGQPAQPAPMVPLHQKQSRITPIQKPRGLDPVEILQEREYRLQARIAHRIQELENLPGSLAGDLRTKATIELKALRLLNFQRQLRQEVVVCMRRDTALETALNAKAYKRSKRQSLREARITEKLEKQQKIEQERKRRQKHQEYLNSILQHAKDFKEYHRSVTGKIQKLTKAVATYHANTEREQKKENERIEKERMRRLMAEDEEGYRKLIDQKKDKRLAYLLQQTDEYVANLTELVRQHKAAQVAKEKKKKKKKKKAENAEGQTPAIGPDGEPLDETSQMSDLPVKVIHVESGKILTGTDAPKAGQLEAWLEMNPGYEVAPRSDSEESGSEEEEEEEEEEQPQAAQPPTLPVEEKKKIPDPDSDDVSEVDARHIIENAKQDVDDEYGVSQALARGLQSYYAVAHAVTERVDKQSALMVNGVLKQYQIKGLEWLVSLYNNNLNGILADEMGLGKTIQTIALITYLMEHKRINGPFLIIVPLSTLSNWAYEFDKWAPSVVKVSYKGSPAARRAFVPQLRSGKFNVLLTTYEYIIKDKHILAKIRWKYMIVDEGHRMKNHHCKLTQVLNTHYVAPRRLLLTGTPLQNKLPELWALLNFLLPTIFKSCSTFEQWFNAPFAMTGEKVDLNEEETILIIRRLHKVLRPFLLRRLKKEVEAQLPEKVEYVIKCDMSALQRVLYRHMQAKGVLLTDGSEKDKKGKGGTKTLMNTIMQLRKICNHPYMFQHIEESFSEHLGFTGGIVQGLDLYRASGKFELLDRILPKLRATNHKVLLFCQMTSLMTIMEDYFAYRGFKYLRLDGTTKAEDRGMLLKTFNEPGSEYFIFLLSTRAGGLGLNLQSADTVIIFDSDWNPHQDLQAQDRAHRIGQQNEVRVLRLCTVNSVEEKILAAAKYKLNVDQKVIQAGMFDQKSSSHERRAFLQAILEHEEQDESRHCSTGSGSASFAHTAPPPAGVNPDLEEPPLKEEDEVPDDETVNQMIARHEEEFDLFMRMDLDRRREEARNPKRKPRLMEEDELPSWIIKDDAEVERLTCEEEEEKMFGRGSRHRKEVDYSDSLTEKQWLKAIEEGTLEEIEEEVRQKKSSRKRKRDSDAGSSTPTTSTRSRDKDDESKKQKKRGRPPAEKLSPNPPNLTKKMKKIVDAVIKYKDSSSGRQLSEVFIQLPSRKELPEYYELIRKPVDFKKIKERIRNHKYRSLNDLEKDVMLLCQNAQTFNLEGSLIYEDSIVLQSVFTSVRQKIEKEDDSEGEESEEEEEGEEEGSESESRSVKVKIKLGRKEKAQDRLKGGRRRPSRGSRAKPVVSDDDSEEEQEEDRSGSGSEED

With `CNC(=O)C1CCCCN1CC#Cc1cc(N2C3CCC2CN(c2cc(-c4ccccc4O)nnc2N)C3)ccn1` (centres unmarked) [Compound 96, 1-[3-[4-[3-[3-amino-6-(2-hydroxyphenyl)pyridazin-4-yl]-3,8-diazabicyclo[3.2.1]octan-8-yl]-2-pyridyl]prop-2-ynyl]-N-methyl-piperidine-2-carboxamide], in assay [1], the DC50 is 10 to 100 nM and the Dmax was 0 to 30%. In assay [2], the DC50 was greater than 100 nM and the “BRM IF Degradation Sinf (%)” value is listed as “E (E indicates −30%-−70%)”.

Take `Nc1nnc(-c2ccccc2O)cc1N1CC2CCC(C1)N2c1ccnc(C#CCN2CC3(CC(F)C3)C2)c1` [Compound 97, 2-[6-amino-5-[8-[2-[3-(6-fluoro-2-azaspiro[3.3]heptan-2-yl)prop-1-ynyl]-4-pyridyl]-3,8-diazabicyclo[3.2.1]octan-3-yl]pyridazin-3-yl]phenol]: in assay [1], the DC50 is less than 10 nM and the Dmax lay within 30 to 70%. In assay [2], the DC50 is less than 10 nM and the “BRM IF Degradation Sinf (%)” value is recorded as “F (F indicates −71%-−120%)”.

As for `Nc1nnc(-c2ccccc2O)cc1N1CC2CCC(C1)N2c1ccnc(C#CCN2CC3COC(C3)C2)c1` (centres unmarked) [Compound 98, 2-[6-amino-5-[8-[2-[3-(6-oxa-3-azabicyclo[3.2.1]octan-3-yl)prop-1-ynyl]-4-pyridyl]-3,8-diazabicyclo[3.2.1]octan-3-yl]pyridazin-3-yl]phenol], in assay [1], the DC50 was greater than 100 nM. In addition, in assay [2], the DC50 was 10 to 100 nM and the “BRM IF Degradation Sinf (%)” value is given as “E (E indicates −30%-−70%)”.

`Nc1nnc(-c2ccccc2O)cc1N1CC2CCC(C1)N2c1ccnc(C#CCN2CCCC3(CC3)C2)c1` [Compound 99, 2-[6-amino-5-[8-[2-[3-(5-azaspiro[2.5]octan-5-yl)prop-1-ynyl]-4-pyridyl]-3,8-diazabicyclo[3.2.1]octan-3-yl]pyridazin-3-yl]phenol]: in assay [1], the DC50 was less than 10 nM and the Dmax was 30 to 70%. In assay [2], the DC50 is less than 10 nM and the “BRM IF Degradation Sinf (%)” value is listed as “E (E indicates −30%-−70%)”.

Take `Nc1nnc(-c2ccccc2O)cc1N1CC2CCC(C1)N2c1ccnc(C#CCN2CCC23CCCOC3)c1` (centres unmarked) [Compound 100, 2-[6-amino-5-[8-[2-[3-(8-oxa-1-azaspiro[3.5]nonan-1-yl)prop-1-ynyl]-4-pyridyl]-3,8-diazabicyclo[3.2.1]octan-3-yl]pyridazin-3-yl]phenol]: in assay [1], the DC50 is less than 10 nM and the Dmax fell in the range of 30 to 70%. For the same compound, in assay [2], the DC50 is less than 10 nM and the “BRM IF Degradation Sinf (%)” value is reported as “E (E indicates −30%-−70%)”.

Turning to `Nc1nnc(-c2ccccc2O)cc1N1CC2CCC(C1)N2c1ccnc(C#CCN2CC3CCCC(C2)O3)c1` [Compound 101, 2-[6-amino-5-[8-[2-[3-(9-oxa-3-azabicyclo[3.3.1]nonan-3-yl)prop-l-ynyl]-4-pyridyl]-3,8-diazabicyclo[3.2.1]octan-3-yl]pyridazin-3-yl]phenol], in assay [1], the DC50 was greater than 100 nM. Besides, in assay [2], the DC50 lay within 10 to 100 nM and the “BRM IF Degradation Sinf (%)” value was “E (E indicates −30%-−70%)”.

Regarding `Nc1nnc(-c2ccccc2O)cc1N1CC2CCC(C1)N2c1ccnc(C#CCN2CCC[C@@H]3CC[C@@H]32)c1` [Compound 102, 2-[6-amino-5-[8-[2-[3-[(1S,6R)-2-azabicyclo[4.2.0]octan-2-yl]prop-1-ynyl]-4-pyridyl]-3,8-diazabicyclo[3.2.1]octan-3-yl]pyridazin-3-yl]phenol], in assay [1], the DC50 is less than 10 nM and the Dmax was in the range of 30 to 70%. In assay [2], the DC50 is less than 10 nM and the “BRM IF Degradation Sinf (%)” value was “E (E indicates −30%-−70%)”.

As for `Nc1nnc(-c2ccccc2O)cc1N1CC2CCC(C1)N2c1ccnc(C#CCN2C3CCC(C3)C2CO)c1` (centres unmarked) [Compound 103, 2-[6-amino-5-[8-[2-[3-[3-(hydroxymethyl)-2-azabicyclo[2.2.1]heptan-2-yl]prop-1-ynyl]-4-pyridyl]-3,8-diazabicyclo[3.2.1]octan-3-yl]pyridazin-3-yl]phenol], in assay [1], the DC50 is greater than 100 nM and the Dmax was in the range of 30 to 70%. Further, in assay [2], the DC50 is less than 10 nM and the “BRM IF Degradation Sinf (%)” value is given as “E (E indicates −30%-−70%)”.

Consider `Nc1nnc(-c2ccccc2O)cc1N1CC2CCC(C1)N2c1ccnc(C#CCN2CCC3CC2CO3)c1` (centres unmarked) [Compound 104, 2-[6-amino-5-[8-[2-[3-(6-oxa-2-azabicyclo[3.2.1]octan-2-yl)prop-1-ynyl]-4-pyridyl]-3,8-diazabicyclo[3.2.1]octan-3-yl]pyridazin-3-yl]phenol], for which, in assay [1], the DC50 is less than 10 nM and the Dmax is 0 to 30%. In assay [2], the DC50 is less than 10 nM and the “BRM IF Degradation Sinf (%)” value is “E (E indicates −30%-−70%)”.

For `Nc1nnc(-c2ccccc2O)cc1N1CC2CCC(C1)N2c1ccnc(C#CCN2CC3CC3(O)C2)c1` (centres unmarked) [Compound 105, 3-(3-(4-(3-(3-amino-6-(2-hydroxyphenyl)pyridazin-4-yl)-3,8-diazabicyclo[3.2.1]octan-8-yl)pyridin-2-yl)prop-2-yn-1-yl)-3-azabicyclo[3.1.0]hexan-1-ol], in assay [1], the DC50 was 10 to 100 nM and the Dmax was 0 to 30%. In assay [2], the DC50 lay in the range of 10 to 100 nM and the “BRM IF Degradation Sinf (%)” value is “E (E indicates −30%-−70%)”.

With `Nc1nnc(-c2ccccc2O)cc1N1CC2CCC(C1)N2c1ccnc(C#CCN2CCCC23CCC3)c1` [Compound 106, 2-[6-amino-5-[8-[2-[3-(5-azaspiro[3.4]octan-5-yl)prop-1-ynyl]-4-pyridyl]-3,8-diazabicyclo[3.2.1]octan-3-yl]pyridazin-3-yl]phenol], in assay [1], the DC50 was less than 10 nM and the Dmax lay in the range of 30 to 70%. Also, in assay [2], the DC50 is less than 10 nM and the “BRM IF Degradation Sinf (%)” value is given as “E (E indicates −30%-−70%)”.

Consider `Nc1nnc(-c2ccccc2O)cc1N1CC2CCC(C1)N2c1ccnc(C#CCN2CCn3cccc3C2)c1` [Compound 107, 2-[6-amino-5-[8-[2-[3-(3,4-dihydro-1H-pyrrolo[l,2-a]pyrazin-2-yl)prop-1-ynyl]-4-pyridyl]-3,8-diazabicyclo[3.2.1]octan-3-yl]pyridazin-3-yl]phenol], for which, in assay [1], the DC50 was 10 to 100 nM and the Dmax fell in the range of 0 to 30%. Also, in assay [2], the DC50 is 10 to 100 nM and the “BRM IF Degradation Sinf (%)” value is “E (E indicates −30%-−70%)”.

As for `CN1C[C@@H]2CN(CC#Cc3cc(N4C5CCC4CN(c4cc(-c6ccccc6O)nnc4N)C5)ccn3)C[C@@H]2C1` [Compound 108, 2-[5-[8-[2-[3-[(3aS,6aR)-2-methyl-1,3,3a,4,6,6a-hexahydropyrrolo[3,4-c]pyrrol-5-yl]prop-1-ynyl]-4-pyridyl]-3,8-diazabicyclo[3.2.1]octan-3-yl]-6-amino-pyridazin-3-yl]phenol], in assay [1], the DC50 was greater than 100 nM. Moreover, in assay [2], the DC50 was greater than 100 nM and the “BRM IF Degradation Sinf (%)” value is “E (E indicates −30%-−70%)”.

In the case of `Nc1nnc(-c2ccccc2O)cc1N1CC2CCC(C1)N2c1ccnc(C#CCN2C[C@@H]3C[C@@H](O)[C@H]2C3)c1` [Compound 109, (1R,4S,6R)-2-[3-[4-[3-[3-amino-6-(2-hydroxyphenyl)pyridazin-4-yl]-3,8-diazabicyclo[3.2.1]octan-8-yl]-2-pyridyl]prop-2-ynyl]-2-azabicyclo[2.2.1]heptan-6-ol], in assay [1], the DC50 is less than 10 nM and the Dmax was 30 to 70%. In assay [2], the DC50 was less than 10 nM and the “BRM IF Degradation Sinf (%)” value was “E (E indicates −30%-−70%)”.
